Experimental data: patent US20100247659A1, “PHENYLPHTHALIMIDE ANALOGS FOR TREATING DIABETIC MACULAR EDEMA” (Charlesson, LLC, priority 2007, published 2010)

Legend:
HUVEC [1] = experiment: MTT cell proliferation assay, HUVEC; assay type: cell-based; settings: Homo sapiens, 72 h, treated 3 days, read-out: IC50, inhibition of proliferation of HUVEC
Description: (§1) Cell culture: All cell culture media and supplements were purchased from Cellgro unless otherwise indicated. Human Umbilical Vein Endothelial Cells (HUVEC) were obtained from American Type Culture Collection and grown in the EBM-MV2 medium (Clonetics). Bovine Retinal Endothelial Cells (BREC) and pericytes were isolated according to a modified method as described previously (Wong, et al. Investig. Opthalmol. Vis. Sci. 1987, 28: 1767-1775). Twelve bovine eyes were obtained from a local slaughterhouse (Country Home Meats). The retinas were removed and washed four times in DMEM. Subsequently retinas were homogenized and centrifuged at 400×g for 10 min. The resultant pellet was resuspended in an isolation medium (DMEM with 100 IU/ml penicillin, 100 μg/ml streptomycin and 250 ng/ml amphotericin). Microvessels were trapped on an 85 μm nylon mesh (Locker Wire Weavers LTD) and transferred to a petri dish (Falcon) containing 10 ml of an enzyme cocktail which consisted of 600 μg/ml DNase I (Sigma), 165 μg/ml collagenase (Sigma) and 700 μg/ml Pronase E (EMD) and were incubated at 37° C. for 20 min. The resultant vessel fragments were trapped on a 53 μm nylon mesh (Locker Wire Weavers LTD), washed with the isolation medium and centrifuged at 400×g for 5 min. For selective culture of pericytes, the resultant pellet was resuspended in 10 ml of the pericyte growth medium and transferred into 75-cm^2 plastic tissue culture flasks (BD Biosciences). For selective culture of BRCECs, the resultant pellet was resuspended in 10 ml of the BRCEC growth medium and transferred into 75-cm^2 collagen-coated plastic tissue culture flasks (BD Biosciences). The BRCEC growth medium consisted of DMEM supplemented with 10% human serum, 1% glutamine, 1 mg/ml insulin, 550 μg/ml transferring, 670 ng/ml selenium, 100 IU/ml penicillin, 100 μg/ml streptomycin, 250 ng/ml amphotericin, 90 μg/ml heparin (Sigma) and 15 μg/ml endothelial cell growth supplement (Upstate). Cells were cultured at 37° C. and 5% CO2 with regular medium change every 3 days. Confluence cultures were passaged by detaching the cells with 0.25% trypsin and plated at a split 1:3. […] At passage 2, BRCECs and pericytes were stored in a liquid nitrogen tank for future use.
MTT assay: Cells were seeded at a density of 5×10^4 cells per well in 400 μl of growth medium in triplicate in 24-well plates (Nalge Nunc) or gelatin-coated 24-well plates. Twenty-four hours after seeding, the growth medium was replaced by a medium containing 1% FBS, with or without different concentrations of thalidomide or phenylphthalimide analogs. After the cells were treated for 48-72 h, MTT was added to a final concentration of 0.5 mg of medium per ml and incubated for 4 h at 37° C. in 5% CO2. An equal volume of solubilizer buffer is then added, following the protocol recommended by the manufacturer (Roche Molecular Biochemicals), the cells will be incubated overnight at 37° C. in 5% CO2. The absorbance of the formazen product was measured at a wavelength of 570 nm, with 750 nm as the (subtracted) reference wavelength.
Primary endothelial cells (HUVEC and BRCEC) and pericytes were treated with various concentrations of the compounds for 3 days. Viable cells were quantified using MTT assay and IC50 of each compound was calculated (mean±SD, n=3, FIG. 1). The IC50 values represent the means and SE of 3 independent experiments.

BRCEC = experiment: MTT cell proliferation assay, BRCEC; assay type: cell-based, bovine; settings: Bos taurus, 72 h, treated 3 days, read-out: IC50, inhibition of proliferation of BRCEC
Description: as §1
MTT assay: Cells were seeded at a density of 5×10^4 cells per well in 400 μl of growth medium in triplicate in 24-well plates (Nalge Nunc) or gelatin-coated 24-well plates. […] The absorbance of the formazen product was measured at a wavelength of 570 nm, with 750 nm as the (subtracted) reference wavelength.
Primary endothelial cells (HUVEC and BRCEC) and pericytes were treated with various concentrations of the compounds for 3 days. Viable cells were quantified using MTT assay and IC50 of each compound was calculated (mean±SD, n=3, FIG. 1). […]

HUVEC [2] = experiment: Endothelial cell migration (invasion) assay; assay type: cell-based; settings: Homo sapiens, VEGF 4 ng/ml, invasion through Matrigel, read-out: IC50, inhibition of HUVEC migration
Experimental: Cells were allowed to invade for 22±1 hours. Cells were labeled post invasion with Calcein AM (4 μg/ml) and measured by detecting the fluorescence of cells that invaded through the BD Matrigel™ Matrix with an Applied Biosystems CytoFluor® 4000 plate reader at 485 nm excitation and 530 nm emission.
In this assay system, human endothelial cells are allowed to invade and are then labeled with fluorescent dye Calcein AM before quantification on a fluorometer.
In FIG. 2B, cells were seeded at 5×10^4/insert in EBM-2 containing 0.1% BSA in multi-well inserts. The assembled assays were allowed to proceed for 6 hours. The results are expressed as percent inhibition of migration as compared to control (no inhibitor). Data represents the average of 3 experiments, each run in triplicate. The bars represent mean±SD.

STZ-diabetic rats = experiment: Retinal vascular leakage in STZ-diabetic rats, intravitreal injection; assay type: in vivo, rat; settings: single intravitreal 1.0 μg/eye (5 μl 0.8 mM), 48 h
Experimental: Induction of diabetes by streptozotocin (STZ): BN rats (8 weeks of age) were given a single intraperitoneal injection of fresh made streptozotocin (STZ) (Sigma, 50 mg/kg in 10 mM of citrate buffer, pH 4.5) following an overnight fasting. Control rats received an injection of citrate buffer alone. Blood glucose levels were checked at 24 hours following the last STZ injection and once a week thereafter, and only the animals with glucose levels higher than 350 mg/dl were considered diabetic. Rats with hyperglycemia for 2 weeks were used for these experiments.
Intravitreal injection of compounds: Thalidomide and the phenylphthalimide analogs Compounds 1, 2 and Compound 4 were dissolved in vehicle (BN rat serum) and sterilized by filtration. OIR and STZ-diabetic BN rats received an intravitreal injection of 0.5-2.0 μg/eye of (5 μl/eye, 0.1-0.4 mg/ml in BN rat serum) of thalidomide, Compounds 1, 2 or Compound 4 into the right eye and the equal volume of the BN rat serum into the left eye.
Evans blue dye (Sigma) was dissolved in 0.9% saline (30 mg/ml), sonicated for 5 min and filtered through a 0.45-μm filter (Millipore). The rats were then anesthetized, and Evans blue (30 mg/kg) was injected over 10 s through the femoral vein using a glass capillary under microscopic inspection. Evans blue non-covalently binds to plasma albumin in the blood stream. Immediately after Evans blue infusion, the rats turned visibly blue, confirming their uptake and distribution of the dye. The rats were kept on a warm pad for 2 h to ensure the complete circulation of the dye. Then the chest cavity was opened, and the rats were perfused via the left ventricle with 1% paraformaldehyde in citrate buffer (pH 4.2) which was pre-warmed to 37° C. to prevent vasoconstriction. The perfusion lasted 10 min under the physiological pressure of 120 mmHg, in order to clear the dye from the vessel. Immediately after perfusion, the eyes were enucleated and the retinas were carefully dissected under an operating microscope. Evans blue dye was extracted by incubating each sample in 150 μl of formamide for 18 h at 70° C. The extract was centrifuged (Beckman) at 70,000 rpm (Rotor type: TLA 100.3) for 20 min at 4° C. Absorbance was measured using 100 μl of the supernatant at 620 nm by using Spectrophotometer DU800 (Beckman). The concentration of Evans blue in the extract was calculated from a standard curve of Evans blue in formamide and normalized by the total protein concentration in each sample. Results were expressed in mg of Evans blue per mg of total protein content.
Diabetes was induced by injection of STZ (50 mg/kg, i.v.) into adult BN rats after overnight fasting. Blood glucose levels were monitored at the second day after the injection and once a week thereafter. Rats with glucose levels above 350 mg/dl were considered as diabetic and used for the study. thalidomide, Compounds 1, 2 and 4 were separately injected into the vitreous space (5 μl, 0.8 mM in BN rat serum) of the right eye of STZ-diabetic rats 2 wks after the induction of diabetes. At 48 h after the injection, retinal vascular leakage was measured using the Evans blue-albumin leakage method.
To determine the dose-response relationship of the effect of Compound 4 and thalidomide, the STZ-diabetic rats received an intravitreal injection of Compound 4 and thalidomide with doses of 0.5, 0.75 and 1.0 μg/eye (5 μl/eye of 0.10, 0.15 and 0.20 mg/ml), respectively.

[3] = system: CAM blood vessel formation induced by VEGF/bFGF; experiment: Chicken chorioallantoic membrane (CAM) assay; assay type: in vivo; settings: 200 ng VEGF-165/bFGF, 48 hr
Experimental: Chicken chorioallantoic membrane (CAM) assay: The fertile Leghorn chicken eggs were incubated in a humidified environment at 37.5° C. for 10 days. […] Anti-angiogenic compounds were then added 8 hr after the VEGF/bFGF at saturation to the same microbial testing disk, and the embryos were incubated for an additional 40 h. CAMs were then removed, quickly fixed with 4% paraformaldehyde in PBS, placed onto Petri dishes, and digitized images taken at 7.5× using a Nikon dissecting microscope and Scion Imaging system. A 1×1-cm grid was then added to the digital CAM images and the average number of vessels within 5-7 grids counted as a measure of vascularity.
CAM assay was used for in vivo anti-angiogenic studies. The fertile leghorn chicken eggs were allowed to incubate in a humidified environment at 37.5° C. for 10 days. […] Anti-angiogenic compounds were then added 8 hours after the VEGF/bFGF at saturation to the same microbial testing disk and embryos allowed to incubate for an additional 40 hours. After 48 hr, CAMs were removed, quickly fixed with 4% paraformaldehyde in PBS, placed onto Petri dishes, and digitized images taken at 7.5× using a Nikon dissecting microscope and Scion Imaging system. A 1×1-cm grid was then added to the digital CAM images and the average number of vessels within 5-7 grids counted as a measure of vascularity.
FIG. 14 is a table comparing the effect of Compound 4 on blood vessel formation. […] Data represent mean±SD of 8-16 samples from 2-3 separate experiments.

SMILES	IC50 (HUVEC [1]) [µM]	IC50 (BRCEC) [µM]	IC50 (HUVEC [2]) [µM]	reduction of retinal vascular leakage vs vehicle control (STZ-diabetic rats) [%]	ED50, dose reducing blood vessel number to 50% of VEGF/bFGF alone group [3] [μg/embryo]
Nc1cccc2c1C(=O)N(C1CCC(=O)NC1=O)C2=O (stereo not drawn) [Actimid]	> 100				
CC(C)c1cccc(C(C)C)c1N1C(=O)c2ccc(O)cc2C1=O [Compound 1]	3.3	1.94	1	61	
CC(C)c1cccc(C(C)C)c1N1C(=O)c2ccccc2C1=O [Compound 2, (2,6-diisopropylphenyl)-1H-isoindole-1,3-dione]	3	3.56			
Nc1cccc2c1CN(C1CCC(=O)NC1=O)C2=O (stereo not drawn) [Revimid]	> 100				
Cc1cc(C)c(/C=C2\C(=O)Nc3ccccc32)[nH]1 [SU5416]					7.8
